Data reported in publication PMC3034309 (European journal of pharmacology, 2011).

Assays:
cannabinoid CB1 receptor [1] = target: T1, cannabinoid CB1 receptor (Rattus norvegicus, UniProt P20272); assay: [3H]CP55,940 binding, cannabinoid CB1 receptor, rat cerebellar membranes; settings: read-out: Ki (nM) CB1, 1 nM [3H]CP55,940, mean ± S.E.M.
[2] = target: mouse cannabinoid CB2 receptors (Mus musculus, UniProt P47936); assay: [3H]CP55,940 binding, cannabinoid CB2 receptor, CB2-CHO cell membranes; settings: for Ki: read-out: Ki (nM) CB2, CB2-CHO cell membranes, 1 nM [3H]CP55,940, mean ± S.E.M.; for better affinity for cannabinoid CB2 receptors than for CB1: ratio of CB1 to CB2 affinity
ICR mice [3] = assay: Rectal temperature; settings: i.v., 95% confidence limits in parentheses
ICR mice [4] = assay: Tail flick antinociception; settings: for ED50 TF (tail flick antinociception): mice, i.v., 95% confidence limits in parentheses
ICR mice [5] = assay: Mouse in vivo screening test battery as a whole, agonist tests
ICR mice [6] = assay: Suppression of spontaneous activity; settings: i.v.; for ED50 SA (suppression of spontaneous activity): 95% confidence limits in parentheses
[7] = target: human cannabinoid CB1 receptors (Homo sapiens, UniProt P21554); assay: Inhibition of forskolin-stimulated cyclic AMP production in CHO cells; format: cell-based; settings: read-out: Emax, inhibition of forskolin-induced stimulation of cyclic AMP
cannabinoid CB1 receptor [8] = target: T1, cannabinoid CB1 receptor; assay: Agonist-stimulated [35S]GTPγS binding in rat cerebellar membranes; format: biochemical
[9] = tested on: mouse isolated vas deferens; assay: Mouse vas deferens procedure; settings: for dextral shift of WIN 55,212-2 log concentration response curve: 95% confidence limits in parentheses; for mean change in twitch height: compound alone
ICR mice [10] = assay: Mouse feeding experiment; format: in vivo; settings: mice food deprived for 24 hr, injected i.p. 30 min before 1 h session
ICR mice [11] = assay: Locomotor trials associated with the feeding experiment; format: in vivo, mouse; settings: 10 and 30 mg/kg doses, i.p., 30 min before 10-min test
C57/Bl6J mice = assay: Δ9-tetrahydrocannabinol drug discrimination in mice; format: in vivo, mouse; settings: mice trained to discriminate 5.6 mg/kg Δ9-tetrahydrocannabinol from vehicle, s.c.
ICR mice [12] = assay: Antagonist tests in the mouse in vivo test battery

T1 sequence (P20272 whole entry): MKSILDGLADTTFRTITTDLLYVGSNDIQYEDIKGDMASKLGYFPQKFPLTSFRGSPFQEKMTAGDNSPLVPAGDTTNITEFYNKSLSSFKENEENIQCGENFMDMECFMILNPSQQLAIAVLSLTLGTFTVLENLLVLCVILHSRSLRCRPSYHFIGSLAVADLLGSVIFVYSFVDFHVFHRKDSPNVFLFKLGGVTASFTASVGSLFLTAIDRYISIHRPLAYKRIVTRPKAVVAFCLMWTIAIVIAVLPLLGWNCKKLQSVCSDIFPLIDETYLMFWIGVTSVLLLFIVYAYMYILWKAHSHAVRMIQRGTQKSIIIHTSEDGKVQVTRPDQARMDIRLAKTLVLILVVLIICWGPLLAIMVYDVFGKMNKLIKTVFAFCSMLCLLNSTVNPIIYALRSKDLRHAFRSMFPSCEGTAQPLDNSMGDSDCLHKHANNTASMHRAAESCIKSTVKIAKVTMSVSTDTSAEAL
Sequence of mouse cannabinoid CB2 receptors (P47936 whole entry): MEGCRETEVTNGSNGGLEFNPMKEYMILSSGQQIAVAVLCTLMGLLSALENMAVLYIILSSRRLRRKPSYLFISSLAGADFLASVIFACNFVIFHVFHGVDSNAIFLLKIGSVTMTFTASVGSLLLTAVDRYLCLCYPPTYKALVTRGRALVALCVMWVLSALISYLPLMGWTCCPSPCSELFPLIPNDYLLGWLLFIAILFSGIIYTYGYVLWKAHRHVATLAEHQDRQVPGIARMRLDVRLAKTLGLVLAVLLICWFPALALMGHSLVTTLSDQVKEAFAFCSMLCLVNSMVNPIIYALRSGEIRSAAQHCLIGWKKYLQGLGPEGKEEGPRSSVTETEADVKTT
Sequence of human cannabinoid CB1 receptors (P21554 whole entry): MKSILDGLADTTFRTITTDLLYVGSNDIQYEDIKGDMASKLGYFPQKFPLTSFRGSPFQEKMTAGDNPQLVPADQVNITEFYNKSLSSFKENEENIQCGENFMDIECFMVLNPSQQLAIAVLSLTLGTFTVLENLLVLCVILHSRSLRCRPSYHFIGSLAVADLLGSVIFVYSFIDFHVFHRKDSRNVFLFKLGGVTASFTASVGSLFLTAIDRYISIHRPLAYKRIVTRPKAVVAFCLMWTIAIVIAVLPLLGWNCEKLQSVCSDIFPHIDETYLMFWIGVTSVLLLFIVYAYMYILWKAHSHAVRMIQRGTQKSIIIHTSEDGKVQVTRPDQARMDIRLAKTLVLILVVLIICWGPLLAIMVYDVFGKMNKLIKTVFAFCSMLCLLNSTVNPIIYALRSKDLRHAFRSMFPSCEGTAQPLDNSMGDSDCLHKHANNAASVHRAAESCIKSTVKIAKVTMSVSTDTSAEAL

## CCCCS(=O)(=O)NCCCC#CCc1cc(O)c2c(c1)OC(C)(C)C1CC=C(C)CC21 (centres unmarked) [O-1993]
Cannabinoid CB1 receptor [1]
  Ki: 70 ± 10 nM
[2]
  Ki: 86 ± 7 nM
ICR mice [3]
  ED50 RT (rectal temperature): 12 (9-15) mg/kg
ICR mice [4]
  ED50 TF (tail flick antinociception): 14 (7-27) mg/kg
ICR mice [5]; across the three in vivo tests (SA, TF, RT)
  decrease of in vivo potencies as compared to O-1991: 4- to 14 fold
ICR mice [6]
  ED50 SA (suppression of spontaneous activity): 8 (3-16) mg/kg

## CCCCCCC(C)(C)c1ccc([C@@H]2C[C@H](O)CC[C@H]2CCCO)c(O)c1 [CP55,940, (−)-cis-3-[2-hydroxy-4(1,1-dimethyl-heptyl)phenyl]-trans-4-(3-hydroxy-propyl)cyclohexanol]
[7]
  Emax: 74.4%

## CCS(=O)(=O)NCCCC#CCc1cc(O)c2c(c1)OC(C)(C)[C@@H]1CC=C(C)C[C@@H]21 [O-1991]
Cannabinoid CB1 receptor [1]
  Ki: 30 ± 13 nM
[2]
  better affinity for cannabinoid CB2 receptors than for CB1: 21 fold
  Ki: 1.4 ± 0.2 nM
ICR mice [3]
  ED50 RT (rectal temperature): 0.8 (0.4-1.6) mg/kg
ICR mice [4]
  ED50 TF (tail flick antinociception): 0.9 (0.6-1.4) mg/kg
ICR mice [6]
  ED50 SA (suppression of spontaneous activity): 2 (1-3) mg/kg

## CCS(=O)(=O)NCCCCC(C)(C)c1cc(O)c2c(c1)OC(C)(C)C1CC=C(C)CC21 (centres unmarked) [O-2113]
Cannabinoid CB1 receptor [1]
  Ki: 1.7 ± 0.3 nM
[2]
  better affinity for cannabinoid CB2 receptors than for CB1: 21 fold
  Ki: 0.08 ± 0.02 nM
ICR mice [3]
  ED50 RT (rectal temperature): 1.4 (0.3-4.6) mg/kg
ICR mice [4]
  ED50 TF (tail flick antinociception): 0.3 (0.1-1) mg/kg
ICR mice [6]
  ED50 SA (suppression of spontaneous activity): 0.4 (0.1-1.8) mg/kg

## CC1=CC[C@@H]2[C@@H](C1)c1c(O)cc(CC#CCCCNS(C)(=O)=O)cc1OC2(C)C [O-2050]
Cannabinoid CB1 receptor [1]
  Ki: 2.5 ± 0.4 nM
[2]
  better affinity for cannabinoid CB2 receptors than for CB1: 12 fold
  Ki: 0.2 ± 0.1 nM
Cannabinoid CB1 receptor [8]; compound alone, rat cerebellar membranes
  maximum stimulation of [35S]GTPγS binding: 11 ± 3%
Cannabinoid CB1 receptor [8]; in presence of 1000 nM CP55,940
  stimulation by CP 55,940 that was not blocked: 11 ± 6%
[9]; 1 nM O-2050
  dextral shift of WIN 55,212-2 log concentration response curve: 2.8 (1.7 - 4.4)
[9]; 10 nM O-2050
  dextral shift of WIN 55,212-2 log concentration response curve: 7.5 (4.1 - 13)
[9]; 31.62 nM O-2050
  dextral shift of WIN 55,212-2 log concentration response curve: 15.0 (9.9 - 21.9)
[9]; 100 nM O-2050
  dextral shift of WIN 55,212-2 log concentration response curve: 103.9 (60.0 - 180.7)
[9]; 30 min after 1 nM
  mean change in twitch height: 6.03±6.21%
[9]; 30 min after 10 nM
  mean change in twitch height: −0.45±5.9%
[9]; 30 min after 31.62 nM
  mean change in twitch height: 3.39±9.4%
[9]; 30 min after 100 nM
  mean change in twitch height: 3.8±8.1%
[9]; 30 min after 1000 nM
  mean change in twitch height: 6.19±16.4%
[9]; interaction with WIN 55,212-2
  Schild plot slope: 0.83±0.18
[9]; read-out: mean KB value, antagonism of WIN 55,212-2
  Kb: 1 ± 0.1 nM
ICR mice [10]
  food intake: significant and dose-dependent decreases in food intake
ICR mice [11]
  locomotor activity: significant locomotor stimulation
C57/Bl6J mice
  Δ9-tetrahydrocannabinol-like discriminative stimulus effects: produced discriminative stimulus effects that were similar to those of Δ^9-tetrahydrocannabinol
ICR mice [12]; 30 mg/kg injected 24 hr prior to 3 mg/kg Δ9-tetrahydrocannabinol, data not shown
  delayed antagonist effects: did not have delayed antagonist effects
ICR mice [12]; doses of up to 3 and 10 mg/kg i.v., vs 1 mg/kg WIN 55,212-2, data not shown
  antagonism of in vivo effects of WIN 55,212-2: did not antagonize
ICR mice [12]; doses up to 30 mg/kg i.v., vs 3 mg/kg Δ9-tetrahydrocannabinol i.v.
  antagonism of in vivo pharmacological effects of Δ9-tetrahydrocannabinol: did not antagonize
ICR mice [4]; 10 μg i.c.v., with dimethyl sulfoxide i.v.
  increase in antinociception as compared to vehicle: 2 fold
ICR mice [5]; mice, i.v., up to 30 mg/kg
  activity in the battery of three in vivo tests: not active in any of the three in vivo tests
ICR mice [6]; 30 mg/kg (highest dose)
  SA: percent effect at the highest dose: 69% @ 30
